Source: ChEMBL document CHEMBL3112436, “Discovery of a novel series of indoline carbamate and indolinylpyrimidine derivatives as potent GPR119 agonists” (Bioorg Med Chem, 2014)
≈ marks a conversion by molar mass, not a printed value.

Tests used:
[1] = Aqueous solubility of the compound in buffer at pH 6.8 by HPLC analysis; assay type: physicochemical
[2] = 1-Octanol-water partition coefficient, log D of the compound at pH 7.4 by HPLC analysis; assay type: physicochemical
[3] = target: T1, Glucose-dependent insulinotropic receptor (Homo sapiens, UniProt Q8TDV5); experiment: Agonist activity at human GPR119 transfected in CHO cells assessed as cAMP accumulation after 2 hrs by luciferase reporter gene assay; assay type: functional, cell-based
T1 sequence (Q8TDV5 whole entry): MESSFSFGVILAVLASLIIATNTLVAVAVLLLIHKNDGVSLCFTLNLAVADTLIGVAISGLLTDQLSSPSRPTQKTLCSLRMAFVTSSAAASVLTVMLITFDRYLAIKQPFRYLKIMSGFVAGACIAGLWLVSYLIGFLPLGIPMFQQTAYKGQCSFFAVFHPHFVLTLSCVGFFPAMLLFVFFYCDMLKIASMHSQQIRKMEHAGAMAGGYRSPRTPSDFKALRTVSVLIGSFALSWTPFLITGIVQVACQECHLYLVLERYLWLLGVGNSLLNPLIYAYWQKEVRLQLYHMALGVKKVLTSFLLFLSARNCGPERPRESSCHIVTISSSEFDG

Rattus norvegicus [4] = experiment: Antidiabetic activity in Wistar fatty rat type 2 diabetic model assessed as increase in insulin secretion at 30 mg/kg, po administered 1 hr prior to glucose challenge by oral glucose tolerance test; assay type: functional, organism-based; design: dose 30 mg/kg; conditions: TDE = time-dependent effect
Rattus norvegicus [5] = experiment: Antidiabetic activity in Wistar fatty rat type 2 diabetic model assessed as reduction of plasma glucose level at 30 mg/kg, po administered 1 hr prior to glucose challenge by oral glucose tolerance test; assay type: functional, organism-based; design: dose 30 mg/kg; conditions: TDE = time-dependent effect
Rattus norvegicus [6] = experiment: Antidiabetic activity in Wistar fatty rat type 2 diabetic model assessed as reduction of plasma glucose level at 10 mg/kg, po administered 1 hr prior to glucose challenge by oral glucose tolerance test; assay type: functional, organism-based; design: dose 10 mg/kg; conditions: TDE = time-dependent effect
Rattus norvegicus [7] = experiment: Antidiabetic activity in Wistar fatty rat type 2 diabetic model assessed as increase in insulin secretion at 10 mg/kg, po administered 1 hr prior to glucose challenge by oral glucose tolerance test; assay type: functional, organism-based; design: dose 10 mg/kg; conditions: TDE = time-dependent effect

| SMILES | solubility [1] | logD [2] | EC50 [3] | Activity (Rattus norvegicus [4]) | Activity (Rattus norvegicus [5]) | Activity (Rattus norvegicus [6]) | Activity (Rattus norvegicus [7]) |
| --- | --- | --- | --- | --- | --- | --- | --- |
| CC(C)(C)OC(=O)N1CCC(CCOC(=O)N2CCc3c2ccc(S(C)(=O)=O)c3Cl)CC1 | 0.21 µg/mL (≈ 0.431 µM) | 3.6 | 530 nM | – | – | – | – |
| CC(CC1CCN(C(=O)OC(C)(C)C)CC1)OC(=O)N1CCc2cc(S(C)(=O)=O)ccc21 (racemic) | – | 3.4 | 2600 nM | – | – | – | – |
| CC(C)OC(=O)N1CCC(Oc2ncnc(N3CCc4cc(S(C)(=O)=O)ccc43)n2)CC1 | – | 2.6 | 520 nM | – | – | – | – |
| COc1cc2c(cc1S(C)(=O)=O)CCN2C(=O)OCCC1CCN(C(=O)OC(C)(C)C)CC1 | 45 µg/mL (≈ 93.2 µM) | 3.3 | 4800 nM | – | – | – | – |
| Cc1cc(S(C)(=O)=O)cc2c1N(C(=O)OCCC1CCN(C(=O)OC(C)(C)C)CC1)CC2 | 44 µg/mL (≈ 94.3 µM) | 3.2 | 44 nM | – | – | – | – |
| COc1cc(S(C)(=O)=O)cc2c1N(C(=O)OCCC1CCN(C(=O)OC(C)(C)C)CC1)CC2 | 64 µg/mL (≈ 133 µM) | 2.8 | 1700 nM | – | – | – | – |
| Cc1c(S(C)(=O)=O)ccc2c1CCN2C(=O)OCCC1CCN(C(=O)OC(C)(C)C)CC1 | 0.17 µg/mL (≈ 0.364 µM) | 3.4 | 770 nM | – | – | – | – |
| CC(C)(C)OC(=O)N1CCC(CCCC(=O)N2CCc3cc(S(C)(=O)=O)ccc32)CC1 | – | 2.9 | 120 nM | – | – | – | – |
| CC(C)(C)OC(=O)N1CCC(CCOC(=O)N2CCc3cc(S(C)(=O)=O)ccc32)CC1 | – | 3.1 | 68 nM | – | – | – | – |
| CC(C)(C)OC(=O)N1CCC(CCNC(=O)N2CCc3cc(S(C)(=O)=O)ccc32)CC1 | – | 2.3 | 2500 nM | – | – | – | – |
| CC(C)OC(=O)N1CCC(Oc2ccnc(N3CCc4cc(S(C)(=O)=O)ccc43)n2)CC1 | – | 3.5 | 8800 nM | – | – | – | – |
| CC(C)(C)OC(=O)N1CCC(C(O)COC(=O)N2CCc3cc(S(C)(=O)=O)ccc32)CC1 (racemic) | – | 2.1 | 2400 nM | – | – | – | – |
| CC(C)(C)OC(=O)N1CCC(CCOC(=O)N2CCc3cc(S(C)(=O)=O)c(F)cc32)CC1 | 0.67 µg/mL (≈ 1.42 µM) | 3.3 | 160 nM | – | – | – | – |
| CC(C)OC(=O)N1CCC(Oc2ccnc(N3CCc4cc(S(C)(=O)=O)ccc43)c2)CC1 | – | 3 | 87 nM | – | – | – | – |
| CC(C)(C)OC(=O)N1CCC(CCCCN2CCc3cc(S(C)(=O)=O)ccc32)CC1 | – | 4.1 | 1400 nM | – | – | – | – |
| CC(C)OC(=O)N1CCC(Oc2cccc(N3CCc4cc(S(C)(=O)=O)ccc43)c2)CC1 | – | 3.5 | 490 nM | – | – | – | – |

The next compounds have a lower EC50 [3] than those just listed; values first:

| solubility [1] | logD [2] | EC50 [3] | SMILES | Activity (Rattus norvegicus [4]) | Activity (Rattus norvegicus [5]) | Activity (Rattus norvegicus [6]) | Activity (Rattus norvegicus [7]) |
| --- | --- | --- | --- | --- | --- | --- | --- |
| 42 µg/mL (≈ 89.3 µM) | 3 | 25 nM | CC(C)(C)OC(=O)N1CCC(CCOC(=O)N2CCc3cc(S(C)(=O)=O)cc(F)c32)CC1 | – | – | – | – |
| 21 µg/mL (≈ 43.1 µM) | 3.2 | 21 nM | CC(C)(C)OC(=O)N1CCC(CCOC(=O)N2CCc3cc(S(C)(=O)=O)cc(Cl)c32)CC1 | – | – | – | – |
| 3.8 µg/mL (≈ 7.75 µM) | 3.6 | 3.9 nM | CCc1cnc(N2CCC(C(C)COC(=O)N3CCc4cc(S(C)(=O)=O)cc(F)c43)CC2)nc1 (racemic) | tde | tde | – | – |
| 21 µg/mL (≈ 43.3 µM) | 3.3 | 6.8 nM | CC(COC(=O)N1CCc2cc(S(C)(=O)=O)cc(F)c21)C1CCN(C(=O)OC(C)(C)C)CC1 (racemic) | – | – | – | – |
| – | – | 16 nM | CC(C)(C)OC(=O)N1CCC(n2ccc3c(N4CCc5cc(S(C)(=O)=O)ccc54)ncnc32)CC1 | – | – | – | – |
| 0.81 µg/mL (≈ 1.72 µM) | 3.2 | 25 nM | CC(C)(C)OC(=O)N1CCC(CCOC(=O)N2CCc3c2ccc(S(C)(=O)=O)c3F)CC1 | – | – | – | – |
| – | 3.1 | 17 nM | CC(C)OC(=O)N1CCC(Oc2cc(N3CCc4cc(S(C)(=O)=O)ccc43)ncn2)CC1 | – | – | – | – |
| – | 3.4 | 8.4 nM | CC(COC(=O)N1CCc2cc(S(C)(=O)=O)ccc21)C1CCN(C(=O)OC(C)(C)C)CC1 (racemic) | – | – | – | – |
| – | 3.8 | 11 nM | CCc1cnc(N2CCC(Oc3cc(N4CCc5cc(S(C)(=O)=O)ccc54)ncn3)CC2)nc1 | – | – | – | – |
| – | 3.1 | 7.7 nM | CC(C)c1noc(N2CCC(Oc3cc(N4CCc5cc(S(C)(=O)=O)ccc54)ncn3)CC2)n1 | – | – | tde | tde |
